According to PubChem BioAssay (NCI):
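96-well plates; 48 h exposure; 5 concentrations. Endpoints by linear interpolation between flanking doses. Not reached: highest tested concentration assigned. The concentration for 50% growth inhibition is given as GI50. Definition used: TGI = concentration required for complete inhibition of growth.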

Key:
Test in all cases: growth of human tumour cells (NCI), 48 h
BT-549 breast = tested on: BT-549 breast
SW-620 colon = tested on: SW-620 colon
UO-31 renal = tested on: UO-31 renal
CCRF-CEM leukemia = tested on: CCRF-CEM leukemia
MOLT-4 leukemia = tested on: MOLT-4 leukemia
A498 renal = tested on: A498 renal
SF-268 CNS = tested on: SF-268 CNS
KM12 colon = tested on: KM12 colon
MDA-N = tested on: MDA-N
SR leukemia = tested on: SR leukemia

| SMILES | GI50 (BT-549 breast) | TGI (BT-549 breast) | GI50 (SW-620 colon) | TGI (SW-620 colon) | GI50 (UO-31 renal) | TGI (UO-31 renal) | GI50 (CCRF-CEM leukemia) | TGI (CCRF-CEM leukemia) | GI50 (MOLT-4 leukemia) | TGI (MOLT-4 leukemia) | GI50 (A498 renal) | TGI (A498 renal) | GI50 (SF-268 CNS) | TGI (SF-268 CNS) | GI50 (KM12 colon) | TGI (KM12 colon) | TGI (MDA-N) | TGI (SR leukemia) |
| --- | --- | --- | --- | --- | --- | --- | --- | --- | --- | --- | --- | --- | --- | --- | --- | --- | --- | --- |
| COc1ccc(-n2nc(C)c3c(Nc4ccc(NC(=O)Nc5ccc(Cl)c(C(F)(F)F)c5)cc4)ncnc32)cc1 | 2.08 µM | 6.34 µM | 1.9 µM | 4.35 µM | 1.7 µM | 3.69 µM | 2.2 µM | > 100 µM | 1.82 µM | 7.49 µM | 2.09 µM | 5.67 µM | 2.61 µM | 7.99 µM | 1.48 µM | 3.96 µM | – | – |
| c1ccc(C2CC(=NC3CCCCC3)Nc3ccccc3N2)cc1 (stereo not drawn) | – | > 100 µM | – | > 100 µM | – | > 100 µM | – | > 100 µM | – | > 100 µM | – | 93.7 µM | – | > 100 µM | – | > 100 µM | > 100 µM | – |
| C[C@H]1OC(=O)[C@@H]2N=NN(Cc3ccccc3)[C@H]12 | – | – | – | > 100 µM | – | > 100 µM | – | – | – | > 100 µM | – | > 100 µM | – | > 100 µM | – | > 100 µM | > 100 µM | > 100 µM |
| Nc1ccc(-c2nn3c(COc4ccc(Cl)cc4)nnc3s2)cc1 | – | – | – | > 100 µM | – | > 100 µM | 10 µM | > 100 µM | – | > 100 µM | – | – | 46.8 µM | > 100 µM | 99.5 µM | > 100 µM | – | – |
| O=C1C=CC(=O)C(CNc2ccc(C(=O)OCc3ccccc3)cc2)=C1 | – | 9.31 µM | – | 19.6 µM | – | 7.49 µM | – | – | – | > 100 µM | – | 23.5 µM | – | 21.8 µM | – | 23.4 µM | 19.5 µM | – |
| COc1ccc(N2C(=O)C3c4[nH]c5ccccc5c4C4CCCCCCCCCC4C3C2=O)cc1 (stereo not drawn) | – | – | – | > 10 µM | – | > 10 µM | – | > 10 µM | – | > 10 µM | – | > 10 µM | – | > 10 µM | – | > 10 µM | > 10 µM | > 10 µM |
| COP(=O)(OC)C(Nc1ccc(Cc2ccc(NC(c3ccco3)P(=O)(OC)OC)cc2)cc1)c1ccco1 (stereo not drawn) | – | 60 µM | – | > 100 µM | – | > 100 µM | – | > 100 µM | – | > 100 µM | – | 56 µM | – | > 100 µM | – | > 100 µM | > 100 µM | – |
| O=C(O)/C=C\C(=O)Nc1ccc(S(=O)(=O)c2ccc(NC(=O)/C=C\C(=O)O)cc2)cc1 | – | – | – | > 100 µM | – | > 100 µM | – | > 100 µM | – | > 100 µM | – | – | – | > 100 µM | – | > 100 µM | – | > 100 µM |
| C/C(=N\Nc1nc2ccccc2s1)c1ccc2ccccc2n1 | – | > 100 µM | – | > 100 µM | – | > 100 µM | – | 63.7 µM | – | – | – | > 100 µM | – | > 100 µM | – | > 100 µM | > 100 µM | 5.88 µM |
| O=S1(=O)c2cnccc2NC(=NCc2ccccc2)N1c1ccccc1 | – | > 100 µM | – | > 100 µM | – | > 100 µM | – | > 100 µM | – | > 100 µM | – | > 100 µM | – | > 100 µM | – | > 100 µM | – | > 100 µM |
| O=[N+]([O-])c1cccc2c(N=Nc3ccc4ccccc4c3O)c(O)cc(S(=O)(=O)O)c12 | – | > 100 µM | – | > 100 µM | – | 56.1 µM | – | 66.7 µM | – | > 100 µM | – | – | – | > 100 µM | – | > 100 µM | > 100 µM | > 100 µM |
| CSc1nc2c(ncn2C2OC(CO)C(O)C(O)C2O)c(=O)[nH]1 (stereo not drawn) | – | – | – | > 100 µM | – | > 100 µM | – | > 100 µM | – | > 100 µM | – | > 100 µM | – | > 100 µM | – | > 100 µM | – | – |
| Cc1cccc(/C(Br)=C2/OC(=O)c3ccccc32)c1 | – | > 100 µM | – | > 100 µM | – | – | – | > 100 µM | – | > 100 µM | – | > 100 µM | – | > 100 µM | – | > 100 µM | > 100 µM | > 100 µM |
| O=c1c2ccccc2sc2ccccc12 | – | > 100 µM | – | > 100 µM | – | > 100 µM | – | > 100 µM | – | > 100 µM | – | > 100 µM | – | > 100 µM | – | > 100 µM | > 100 µM | – |
| COc1nc2c(N3CCCC3)nc(N3CCNCC3)nc2nc1NCc1ccccc1 | – | 4.01 µM | – | 11.1 µM | – | 2.85 µM | – | 6.72 µM | – | 4.65 µM | – | – | – | 5 µM | – | 4.68 µM | 2.45 µM | 3.37 µM |
| C(=C\c1ccccc1)/COc1ccccc1C(N1CCOCC1)n1nc2ccccc2n1 (stereo not drawn) | – | 26.4 µM | – | 36.5 µM | – | 31.6 µM | – | 6.14 µM | – | 13.2 µM | – | > 100 µM | – | 28.5 µM | – | 19.8 µM | – | 5.49 µM |
| CCOP(=O)(OCC)OC1CC(n2cc(C)c(=O)n(C)c2=O)OC1CO[Si](C)(C)C(C)(C)C (stereo not drawn) | – | > 100 µM | – | > 100 µM | – | 7.15 µM | – | > 100 µM | – | > 100 µM | – | – | – | > 100 µM | – | > 100 µM | > 100 µM | > 100 µM |
| CON(C)C(=O)C1CCCO1 (stereo not drawn) | – | – | – | > 100 µM | – | > 100 µM | – | > 100 µM | – | > 100 µM | – | > 100 µM | – | > 100 µM | – | > 100 µM | > 100 µM | > 100 µM |
| Cc1cc(O)c(-c2cc(O)c(C)cc2O)cc1O | – | 26.7 µM | – | 6 µM | – | 5.4 µM | – | 3.8 µM | – | 5.21 µM | – | 41.8 µM | – | 37.8 µM | – | 27.5 µM | 22.9 µM | – |
| O=C1C(C(O)(C(F)(F)F)C(F)(F)F)CCC1C(O)(C(F)(F)F)C(F)(F)F (stereo not drawn) | – | – | – | > 100 µM | – | 34.3 µM | – | > 100 µM | – | > 100 µM | – | 6.23 µM | – | > 100 µM | – | 37.3 µM | > 81.8 µM | 43.8 µM |
| O=C1C2=Nc3ccccc3C(O)(C(=O)O)N2c2ccccc21 (stereo not drawn) | – | – | – | > 100 µM | – | > 100 µM | – | 94.9 µM | – | > 100 µM | – | 80.9 µM | – | > 100 µM | – | > 100 µM | – | > 100 µM |
| COc1ccc([C@H]2C=[N+]([O-])O[C@H](OC3CCCC3)[C@@H]2OC(C)=O)cc1OC | – | – | – | 53 µM | – | 40.6 µM | – | 20.1 µM | – | > 100 µM | – | > 100 µM | – | > 100 µM | – | 72.4 µM | 69.2 µM | > 100 µM |
